Source: ChEMBL document CHEMBL5465560, “Selectivity Literature for EUbOPEN Chemogenomic Library” (2024)

Experiments:
[1] = molecular target: Maternal embryonic leucine zipper kinase (Homo sapiens) (UniProt Q14680); assay: Selectivity interaction (KinomeScan (DiscoverX)) EUB0000595a MELK; conditions: at 10 µM
[2] = molecular target: T1, Rhodopsin kinase GRK7 (Homo sapiens) (UniProt Q8WTQ7); assay: Selectivity interaction (KinomeScan (DiscoverX)) EUB0000045b GRK7
T1 sequence (whole entry): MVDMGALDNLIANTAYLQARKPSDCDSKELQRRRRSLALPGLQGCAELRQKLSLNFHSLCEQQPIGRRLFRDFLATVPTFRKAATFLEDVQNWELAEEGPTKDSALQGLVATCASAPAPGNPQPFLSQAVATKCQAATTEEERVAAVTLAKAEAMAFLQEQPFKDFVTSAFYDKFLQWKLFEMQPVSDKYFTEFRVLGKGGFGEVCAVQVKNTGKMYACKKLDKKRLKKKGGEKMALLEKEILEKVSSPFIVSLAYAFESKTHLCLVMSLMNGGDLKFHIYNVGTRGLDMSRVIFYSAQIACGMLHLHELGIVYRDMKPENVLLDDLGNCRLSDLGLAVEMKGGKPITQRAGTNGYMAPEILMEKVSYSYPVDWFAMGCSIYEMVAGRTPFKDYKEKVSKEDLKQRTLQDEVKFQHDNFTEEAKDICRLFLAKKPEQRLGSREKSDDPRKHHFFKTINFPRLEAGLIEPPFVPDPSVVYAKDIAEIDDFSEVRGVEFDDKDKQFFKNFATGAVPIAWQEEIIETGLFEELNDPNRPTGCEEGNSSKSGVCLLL

[3] = molecular target: Insulin receptor-related protein (Homo sapiens) (UniProt P14616); assay: Selectivity interaction (KinomeScan (DiscoverX)) EUB0000045b INSRR
[4] = molecular target: Serine/threonine-protein kinase 10 (Homo sapiens) (UniProt O94804); assay: Selectivity interaction (KinomeScan (DiscoverX)) EUB0000045b STK10
[5] = molecular target: Serine/threonine-protein kinase PAK 2 (Homo sapiens) (UniProt Q13177); assay: Selectivity interaction (Kinase panel (Z-LYTE Assay)) EUB0001632a PAK2; conditions: at 10 µM
[6] = molecular target: T2, Tyrosine-protein kinase receptor TYRO3 (Homo sapiens) (UniProt Q06418); assay: Selectivity interaction (KinomeScan (DiscoverX)) EUB0000666a TYRO3; conditions: at 10 µM
T2 sequence (whole entry): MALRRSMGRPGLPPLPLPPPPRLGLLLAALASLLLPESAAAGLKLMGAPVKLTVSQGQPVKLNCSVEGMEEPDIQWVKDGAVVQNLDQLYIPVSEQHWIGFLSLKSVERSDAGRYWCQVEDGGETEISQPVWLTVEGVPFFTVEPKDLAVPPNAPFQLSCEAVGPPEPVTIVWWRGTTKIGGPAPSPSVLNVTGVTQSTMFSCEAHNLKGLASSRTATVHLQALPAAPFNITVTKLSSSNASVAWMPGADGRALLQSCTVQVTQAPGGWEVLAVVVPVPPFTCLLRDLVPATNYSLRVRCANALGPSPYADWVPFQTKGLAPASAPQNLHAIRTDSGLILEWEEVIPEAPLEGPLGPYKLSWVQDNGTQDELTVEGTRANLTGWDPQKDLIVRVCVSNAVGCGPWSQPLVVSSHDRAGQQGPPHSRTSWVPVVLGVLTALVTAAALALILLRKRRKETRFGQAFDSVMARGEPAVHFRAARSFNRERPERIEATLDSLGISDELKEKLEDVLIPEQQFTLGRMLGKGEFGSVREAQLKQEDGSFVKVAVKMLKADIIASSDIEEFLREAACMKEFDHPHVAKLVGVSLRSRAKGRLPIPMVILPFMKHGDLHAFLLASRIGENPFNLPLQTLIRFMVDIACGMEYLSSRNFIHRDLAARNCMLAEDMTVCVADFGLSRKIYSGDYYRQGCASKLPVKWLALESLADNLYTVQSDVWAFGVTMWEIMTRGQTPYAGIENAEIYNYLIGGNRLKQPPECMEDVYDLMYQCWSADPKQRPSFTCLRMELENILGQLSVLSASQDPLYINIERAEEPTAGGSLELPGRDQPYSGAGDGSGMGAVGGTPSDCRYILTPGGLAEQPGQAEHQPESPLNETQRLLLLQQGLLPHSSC

[7] = molecular target: Cyclin-dependent kinase 3 (Homo sapiens) (UniProt Q00526); conditions: at 10 µM
[8] = molecular target: Mitogen-activated protein kinase kinase kinase 9 (Homo sapiens) (UniProt P80192); conditions: at 10 µM
[9] = molecular target: T3, Ephrin type-A receptor 6 (Homo sapiens) (UniProt Q9UF33); assay: Selectivity interaction (KinomeScan (DiscoverX)) EUB0000092b EPHA6; conditions: at 10 µM
T3 sequence (whole entry): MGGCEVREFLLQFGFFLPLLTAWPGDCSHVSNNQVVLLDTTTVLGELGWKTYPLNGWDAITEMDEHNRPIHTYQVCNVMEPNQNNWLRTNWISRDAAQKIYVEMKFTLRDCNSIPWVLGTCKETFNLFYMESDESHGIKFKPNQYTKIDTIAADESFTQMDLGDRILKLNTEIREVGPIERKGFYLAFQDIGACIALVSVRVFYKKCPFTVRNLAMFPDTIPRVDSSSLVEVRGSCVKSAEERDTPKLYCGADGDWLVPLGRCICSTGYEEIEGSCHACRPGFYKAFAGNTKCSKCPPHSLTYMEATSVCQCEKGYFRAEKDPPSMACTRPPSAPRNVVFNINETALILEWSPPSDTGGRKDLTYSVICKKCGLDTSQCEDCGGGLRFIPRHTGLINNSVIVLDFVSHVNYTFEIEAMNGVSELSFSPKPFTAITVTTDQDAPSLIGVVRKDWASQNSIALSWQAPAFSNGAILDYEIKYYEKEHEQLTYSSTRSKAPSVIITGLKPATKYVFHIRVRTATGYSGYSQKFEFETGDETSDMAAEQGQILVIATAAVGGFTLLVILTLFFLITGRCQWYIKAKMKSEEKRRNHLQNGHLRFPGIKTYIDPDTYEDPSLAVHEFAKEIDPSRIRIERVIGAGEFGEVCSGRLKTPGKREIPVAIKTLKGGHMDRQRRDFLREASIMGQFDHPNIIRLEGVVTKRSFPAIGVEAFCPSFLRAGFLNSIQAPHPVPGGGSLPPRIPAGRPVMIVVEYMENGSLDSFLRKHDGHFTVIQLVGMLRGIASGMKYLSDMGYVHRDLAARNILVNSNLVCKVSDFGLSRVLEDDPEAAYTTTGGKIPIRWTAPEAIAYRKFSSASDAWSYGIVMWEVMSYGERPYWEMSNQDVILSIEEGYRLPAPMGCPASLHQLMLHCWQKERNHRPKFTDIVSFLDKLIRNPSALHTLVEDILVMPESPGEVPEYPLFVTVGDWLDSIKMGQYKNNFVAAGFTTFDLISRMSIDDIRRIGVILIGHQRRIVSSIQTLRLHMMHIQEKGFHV

Serine/threonine-protein kinase 10 (Homo sapiens), sequence (O94804 whole entry, looked up): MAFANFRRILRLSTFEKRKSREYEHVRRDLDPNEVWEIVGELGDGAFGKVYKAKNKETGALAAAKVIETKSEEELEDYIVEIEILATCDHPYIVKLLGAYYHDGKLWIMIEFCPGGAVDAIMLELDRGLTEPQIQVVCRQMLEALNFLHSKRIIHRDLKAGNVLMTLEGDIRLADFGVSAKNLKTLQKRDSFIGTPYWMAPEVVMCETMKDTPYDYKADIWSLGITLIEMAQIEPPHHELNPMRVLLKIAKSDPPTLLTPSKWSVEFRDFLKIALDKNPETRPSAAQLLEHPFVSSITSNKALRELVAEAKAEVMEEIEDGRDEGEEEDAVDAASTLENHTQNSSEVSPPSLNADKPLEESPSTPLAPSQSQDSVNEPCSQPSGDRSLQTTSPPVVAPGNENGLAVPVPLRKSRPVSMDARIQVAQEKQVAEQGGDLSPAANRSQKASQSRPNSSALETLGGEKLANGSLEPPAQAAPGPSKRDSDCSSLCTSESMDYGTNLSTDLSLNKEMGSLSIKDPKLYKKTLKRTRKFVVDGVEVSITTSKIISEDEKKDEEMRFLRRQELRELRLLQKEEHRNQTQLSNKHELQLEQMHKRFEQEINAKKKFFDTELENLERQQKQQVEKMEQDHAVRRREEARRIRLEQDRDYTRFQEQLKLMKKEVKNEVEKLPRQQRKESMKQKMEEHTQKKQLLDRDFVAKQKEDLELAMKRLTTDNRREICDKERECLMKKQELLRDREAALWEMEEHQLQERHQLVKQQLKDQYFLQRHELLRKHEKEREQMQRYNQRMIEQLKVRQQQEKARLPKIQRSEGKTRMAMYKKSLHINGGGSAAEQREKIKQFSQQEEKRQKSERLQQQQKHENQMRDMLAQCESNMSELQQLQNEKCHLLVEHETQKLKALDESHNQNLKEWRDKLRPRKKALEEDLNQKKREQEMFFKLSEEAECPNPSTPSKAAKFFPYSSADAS
Insulin receptor-related protein (Homo sapiens), sequence (P14616 27-742 limits assumed): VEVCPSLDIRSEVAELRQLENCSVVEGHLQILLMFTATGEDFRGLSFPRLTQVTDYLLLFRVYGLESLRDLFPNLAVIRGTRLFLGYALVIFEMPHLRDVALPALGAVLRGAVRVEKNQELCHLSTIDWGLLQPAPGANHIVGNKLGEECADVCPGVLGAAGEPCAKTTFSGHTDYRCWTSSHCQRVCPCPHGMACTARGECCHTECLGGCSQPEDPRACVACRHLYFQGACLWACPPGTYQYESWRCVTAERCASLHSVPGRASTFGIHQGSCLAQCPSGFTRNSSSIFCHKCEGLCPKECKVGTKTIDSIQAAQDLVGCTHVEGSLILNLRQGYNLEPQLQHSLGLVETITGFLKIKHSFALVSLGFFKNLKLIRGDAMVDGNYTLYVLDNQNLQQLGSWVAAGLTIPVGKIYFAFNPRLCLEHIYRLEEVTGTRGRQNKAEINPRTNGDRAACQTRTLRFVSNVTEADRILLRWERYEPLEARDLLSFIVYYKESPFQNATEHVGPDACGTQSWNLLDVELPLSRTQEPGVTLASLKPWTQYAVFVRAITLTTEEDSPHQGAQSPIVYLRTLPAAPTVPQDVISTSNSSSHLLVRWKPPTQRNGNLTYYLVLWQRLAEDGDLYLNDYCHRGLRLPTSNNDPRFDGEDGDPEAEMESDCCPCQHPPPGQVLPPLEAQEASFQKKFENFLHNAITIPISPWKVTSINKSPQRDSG
Insulin receptor-related protein (Homo sapiens), sequence (P14616 747-1297 limits assumed): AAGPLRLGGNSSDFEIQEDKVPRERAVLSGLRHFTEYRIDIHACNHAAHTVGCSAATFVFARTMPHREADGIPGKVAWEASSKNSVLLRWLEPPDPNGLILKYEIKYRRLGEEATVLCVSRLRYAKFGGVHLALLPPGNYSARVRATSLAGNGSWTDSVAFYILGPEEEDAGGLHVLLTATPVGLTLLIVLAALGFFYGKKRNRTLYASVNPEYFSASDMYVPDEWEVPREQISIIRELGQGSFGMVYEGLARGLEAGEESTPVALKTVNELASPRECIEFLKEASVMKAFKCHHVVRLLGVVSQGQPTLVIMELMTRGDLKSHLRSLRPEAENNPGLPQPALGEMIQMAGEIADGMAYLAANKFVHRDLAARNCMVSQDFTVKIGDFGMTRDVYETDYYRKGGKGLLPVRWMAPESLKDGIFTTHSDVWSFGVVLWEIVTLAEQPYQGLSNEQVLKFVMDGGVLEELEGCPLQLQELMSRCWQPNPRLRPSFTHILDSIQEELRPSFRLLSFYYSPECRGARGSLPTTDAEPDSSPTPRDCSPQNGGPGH
Maternal embryonic leucine zipper kinase (Homo sapiens), sequence (Q14680 whole entry, looked up): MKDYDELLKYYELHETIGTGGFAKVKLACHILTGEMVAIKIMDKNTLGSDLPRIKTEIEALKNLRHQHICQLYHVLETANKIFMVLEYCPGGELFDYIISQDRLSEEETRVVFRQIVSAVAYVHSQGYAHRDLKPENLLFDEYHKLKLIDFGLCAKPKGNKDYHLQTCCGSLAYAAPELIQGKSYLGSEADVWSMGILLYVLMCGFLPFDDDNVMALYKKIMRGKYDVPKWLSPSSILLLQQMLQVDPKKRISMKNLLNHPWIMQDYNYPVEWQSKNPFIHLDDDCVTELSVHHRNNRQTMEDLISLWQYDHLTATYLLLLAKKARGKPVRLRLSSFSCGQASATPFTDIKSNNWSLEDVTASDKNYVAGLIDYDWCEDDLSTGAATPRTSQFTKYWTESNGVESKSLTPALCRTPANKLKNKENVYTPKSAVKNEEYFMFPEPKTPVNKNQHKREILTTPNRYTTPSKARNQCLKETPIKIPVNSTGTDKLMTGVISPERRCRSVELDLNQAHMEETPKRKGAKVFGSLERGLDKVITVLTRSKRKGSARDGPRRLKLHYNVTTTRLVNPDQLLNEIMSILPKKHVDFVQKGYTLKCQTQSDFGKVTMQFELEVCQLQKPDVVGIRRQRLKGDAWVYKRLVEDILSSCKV
Cyclin-dependent kinase 3 (Homo sapiens), sequence (Q00526 whole entry, looked up): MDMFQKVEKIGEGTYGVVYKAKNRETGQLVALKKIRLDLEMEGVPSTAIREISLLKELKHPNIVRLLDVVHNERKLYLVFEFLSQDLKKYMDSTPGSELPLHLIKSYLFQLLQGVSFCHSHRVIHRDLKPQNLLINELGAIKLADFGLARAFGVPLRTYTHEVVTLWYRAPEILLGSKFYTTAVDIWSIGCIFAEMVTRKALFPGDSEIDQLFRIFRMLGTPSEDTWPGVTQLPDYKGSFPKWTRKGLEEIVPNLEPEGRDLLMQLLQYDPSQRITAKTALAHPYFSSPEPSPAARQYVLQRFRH
Serine/threonine-protein kinase PAK 2 (Homo sapiens), sequence (Q13177 whole entry): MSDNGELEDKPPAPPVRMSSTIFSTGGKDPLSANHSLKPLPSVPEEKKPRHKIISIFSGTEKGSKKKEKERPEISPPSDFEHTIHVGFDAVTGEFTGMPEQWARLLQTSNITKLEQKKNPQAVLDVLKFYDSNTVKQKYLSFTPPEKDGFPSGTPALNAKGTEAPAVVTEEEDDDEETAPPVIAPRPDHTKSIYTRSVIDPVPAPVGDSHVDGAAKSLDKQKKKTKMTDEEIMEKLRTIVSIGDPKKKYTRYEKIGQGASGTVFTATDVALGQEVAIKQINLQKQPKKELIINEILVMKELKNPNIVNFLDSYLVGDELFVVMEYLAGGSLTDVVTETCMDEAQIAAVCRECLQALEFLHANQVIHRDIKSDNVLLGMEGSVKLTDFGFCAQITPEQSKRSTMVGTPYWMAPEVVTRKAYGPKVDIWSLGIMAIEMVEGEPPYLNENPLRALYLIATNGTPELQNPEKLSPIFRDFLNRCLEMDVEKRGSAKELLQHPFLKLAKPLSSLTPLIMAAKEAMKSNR
Mitogen-activated protein kinase kinase kinase 9 (Homo sapiens), sequence (P80192 whole entry, looked up): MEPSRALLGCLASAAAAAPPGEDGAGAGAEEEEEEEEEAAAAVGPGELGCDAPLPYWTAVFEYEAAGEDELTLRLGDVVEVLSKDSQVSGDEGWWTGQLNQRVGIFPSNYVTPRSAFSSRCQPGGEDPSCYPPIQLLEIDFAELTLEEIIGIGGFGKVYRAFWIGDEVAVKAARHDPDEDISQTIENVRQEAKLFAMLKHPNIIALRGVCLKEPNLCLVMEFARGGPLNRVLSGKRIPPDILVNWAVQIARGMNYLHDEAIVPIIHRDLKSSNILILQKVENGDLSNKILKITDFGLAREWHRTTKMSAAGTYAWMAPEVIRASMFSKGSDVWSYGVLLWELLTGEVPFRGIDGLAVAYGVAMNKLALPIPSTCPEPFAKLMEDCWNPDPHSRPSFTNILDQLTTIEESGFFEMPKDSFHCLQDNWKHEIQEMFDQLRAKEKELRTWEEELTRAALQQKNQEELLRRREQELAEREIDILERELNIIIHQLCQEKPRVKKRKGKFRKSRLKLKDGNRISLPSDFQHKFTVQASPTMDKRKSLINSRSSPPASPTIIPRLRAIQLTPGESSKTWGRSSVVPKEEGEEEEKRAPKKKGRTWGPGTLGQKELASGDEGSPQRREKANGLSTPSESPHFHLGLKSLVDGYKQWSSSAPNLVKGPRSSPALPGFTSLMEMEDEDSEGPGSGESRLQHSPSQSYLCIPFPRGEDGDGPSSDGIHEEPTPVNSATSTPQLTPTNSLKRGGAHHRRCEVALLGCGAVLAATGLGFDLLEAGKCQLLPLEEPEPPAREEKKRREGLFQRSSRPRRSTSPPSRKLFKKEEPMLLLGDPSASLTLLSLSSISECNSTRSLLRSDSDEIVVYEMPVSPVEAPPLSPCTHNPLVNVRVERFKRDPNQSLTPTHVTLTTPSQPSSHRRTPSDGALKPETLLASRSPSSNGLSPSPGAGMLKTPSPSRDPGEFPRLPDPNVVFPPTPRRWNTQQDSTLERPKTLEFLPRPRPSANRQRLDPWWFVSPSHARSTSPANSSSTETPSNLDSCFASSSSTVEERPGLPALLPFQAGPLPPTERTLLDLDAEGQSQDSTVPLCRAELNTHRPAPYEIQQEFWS

With `COCC(=O)NC/C=C/c1ccc2ncnc(Nc3ccc(Oc4ccc(C)nc4)c(C)c3)c2c1` [CP-724714] the % of control [1] was 92%.
Work on `C=CC(=O)Nc1cc(-n2c(=O)ccc3cnc4ccc(-c5ccc(NS(C)(=O)=O)cc5)cc4c32)ccc1C` yielded a % of control ([2]; at 1 µM) of 75%, a % of control ([2]; at 10 µM) of 84% and a % of control ([3]; at 1 µM) of 98%. For the same compound, the % of control ([3]; at 10 µM) was 100%, the % of control ([4]; at 1 µM) was 87% and the % of control ([4]; at 10 µM) was 100%.
Compound `Cn1cc(-n2cnc3c(NCc4nc5cc(Cl)c(Cl)cc5[nH]4)nc(N4CCOCC4)nc32)cn1` has a % of control [5] of -1.61%.
`O=C(NOC[C@H](O)CO)c1ccc(F)c(F)c1Nc1ccc(I)cc1F` was tested, and the % of control [6] was 80%.
`Cc1cc([C@@H](C)Nc2ccccc2C(=O)O)c2nc(N3CCOCC3)cc(=O)n2c1` [AZD-6482] gave a % of control [7] of 100%.
`CCN(CC)CCCCNc1ncc2cc(-c3cc(OC)cc(OC)c3)c(NC(=O)NC(C)(C)C)nc2n1` gave a % of control [8] of 100%.
`CCC(=O)N1CCN(c2ccc(-n3c(=O)ccc4cnc5ccc(-c6cnc7ccccc7c6)cc5c43)cc2C(F)(F)F)CC1` was tested, and the % of control [9] was 75%.
